Laboratory results published in ChEMBL document CHEMBL1157402, “Solid-phase total synthesis of cyclic decapeptide phakellistatin 12” (2008).
Converted amounts (≈) assume the structure as drawn. Peptide text beside a SMILES is read from it.

Test system: P388
Assay: Anticancer activity against mouse P388 cells
Format: functional
Conditions: read-out: ED50 (the source's name)

SMILES: CC[C@H](C)[C@@H]1NC(=O)[C@H](C)NC(=O)[C@H](CCSC)NC(=O)[C@H](C)NC(=O)[C@H](CC(N)=O)NC(=O)[C@H](Cc2ccccc2)NC(=O)[C@@H]2CCCN2C1=O [PHAKELLI STATIN 5] (cyclo(AIPFNAM))
- EC50: 0.23 µg/mL (≈ 0.309 µM)

SMILES: CC[C@H](C)[C@@H]1NC(=O)[C@H](Cc2ccccc2)NC(=O)[C@@H]2CCCN2C(=O)[C@H](Cc2ccccc2)NC(=O)[C@@H]2CCCN2C(=O)[C@H](CCC(N)=O)NC(=O)[C@@H]2CCCN2C(=O)[C@H](Cc2ccccc2)NC1=O [PHAKELLI STATIN 11] (cyclo(FIFPQPFP))
- EC50: 0.2 µg/mL (≈ 0.205 µM)

SMILES: CC[C@H](C)[C@@H]1NC(=O)[C@@H]2CCCN2C(=O)[C@H](Cc2ccccc2)NC(=O)[C@@H]2CCCN2C(=O)[C@H](Cc2ccc(O)cc2)NC(=O)[C@@H]2CCCN2C(=O)[C@H]([C@@H](C)CC)NC1=O [PHAKELLISTATIN 2] (cyclo(FPIIPYP))
- EC50: 0.34 µg/mL (≈ 0.411 µM)

SMILES: CC[C@H](C)[C@@H]1NC(=O)[C@@H]2CCCN2C(=O)[C@@H]2CCCN2C(=O)[C@H]([C@@H](C)CC)NC(=O)[C@H](Cc2ccc(O)cc2)NC(=O)[C@@H]2CCCN2C(=O)[C@@H]2CCCN2C(=O)[C@H](CC(C)C)NC(=O)[C@H]([C@@H](C)O)NC(=O)[C@H](Cc2ccccc2)NC1=O [PHAKELLISTATIN 12] (cyclo(FTLPPYIPPI))
- EC50: 2.8 µg/mL (≈ 2.46 µM)
